Laboratory results as given in ChEMBL document CHEMBL1150025, “Synthesis of and glycosidase inhibition by -l-homofuconojirimycin” (Bioorg Med Chem Lett, 1993).

Experiments:
Canavalia ensiformis = assay: Percent inhibition against alpha-D-mannosidase from jack bean at 1 mM concentration
Clostridium perfringens = assay: Percent inhibition against neuraminidase from Type X, Clostridium perfringens at 1 mM concentration
[1] = substrate: Cc1cc(=O)oc2cc(OC3O[C@H](C)[C@H](O)[C@H](O)[C@H]3O)ccc12; assay: The Michaelis-Menten constant against alpha-L-fucosidase from solubilized human neutrophils was determined

| Molecule | inhibition (Canavalia ensiformis) [%] | inhibition (Clostridium perfringens) [%] | Km [1] [µM] |
| --- | --- | --- | --- |
| CC1NC(CO)[C@@H](O)C(O)[C@@H]1O (single isomer, unassigned) | 0 | 0 | – |
| C[C@@H]1NC[C@@H](O)[C@H](O)[C@@H]1O | 83 | 50 | – |
| Plasma alpha-L-fucosidase (Homo sapiens), Q9BTY2 (protein) MRPQELPRLAFPLLLLLLLLLPPPPCPAHSATRFDPTWESLDARQLPAWFDQAKFGIFIHWGVFSVPSFGSEWFWWYWQKEKIPKYVEFMKDNYPPSFKYEDFGPLFTAKFFNANQWADIFQASGAKYIVLTSKHHEGFTLWGSEYSWNWNAIDEGPKRDIVKELEVAIRNRTDLRFGLYYSLFEWFHPLFLEDESSSFHKRQFPVSKTLPELYELVNNYQPEVLWSDGDGGAPDQYWNSTGFLAWLYNESPVRGTVVTNDRWGAGSICKHGGFYTCSDRYNPGHLLPHKWENCMTIDKLSWGYRREAGISDYLTIEELVKQLVETVSCGGNLLMNIGPTLDGTISVVFEERLRQMGSWLKVNGEAIYETHTWRSQNDTVTPDVWYTSKPKEKLVYAIFLKWPTSGQLFLGHPKAILGATEVKLLGHGQPLNWISLEQNGIMVELPQLTIHQMPCKWGWALALTNVI | – | – | 250 |
